Experimental data: EP4596574A1, “GLP-1/GCG/GIP TRIPLE-RECEPTOR AGONIST AND USE THEREOF” (Sunshine Lake Pharma Co., Ltd., priority 2022, dated 2024)
Marks after values point to notes of the source that are not given here.

How the values were obtained:
GIPR = target: T1, GIPR (Homo sapiens, UniProt P48546); assay: In vitro cell activity, cAMP production in HEK293 cells expressing GIPR; format: cell-based
T1 construct: expressed in transfected cells; host or cells: HEK293 (HEK293-GIPR)
T1 sequence (P48546 22-466): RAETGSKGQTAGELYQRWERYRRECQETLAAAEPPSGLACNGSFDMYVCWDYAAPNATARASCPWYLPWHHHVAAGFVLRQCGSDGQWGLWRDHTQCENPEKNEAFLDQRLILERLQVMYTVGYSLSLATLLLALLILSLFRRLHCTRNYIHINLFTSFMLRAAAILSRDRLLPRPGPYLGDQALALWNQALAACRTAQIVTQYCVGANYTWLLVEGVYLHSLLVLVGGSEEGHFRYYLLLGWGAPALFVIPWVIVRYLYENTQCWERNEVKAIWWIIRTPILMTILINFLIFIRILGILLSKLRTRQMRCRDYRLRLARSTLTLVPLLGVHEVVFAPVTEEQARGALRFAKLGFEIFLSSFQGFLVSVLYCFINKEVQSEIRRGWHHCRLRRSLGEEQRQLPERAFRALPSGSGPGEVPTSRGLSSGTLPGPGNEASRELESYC
In short: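 cAMP accumulation is quantified by homogeneous TR-FRET (cAMP-d2 plus anti-cAMP cryptate) in GIPR-expressing HEK293 cells seeded from a 4×10^5 cells/mL suspension and treated with compound. The signal ratio is plotted against concentration and fitted to a four-parameter curve to give EC50.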

GCGR = target: T2, GCGR (Homo sapiens, UniProt P47871); assay: In vitro cell activity, cAMP production in HEK293 cells expressing GCGR; format: cell-based
T2 construct: expressed in transfected cells; host or cells: HEK293 (HEK293-GCGR)
In short: (§1)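 Cells were plated at 4×10^5 cells/mL, and detection reagents (cAMP-d2, anti-cAMP cryptate, 1:1) were incubated 1 h at room temperature in the dark or overnight at 4 °C.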

[1] = In vivo efficacy evaluation in db/db mouse model (blood glucose); parameters: species or system db/db mice
Description: Blood glucose was tested before each administration.

[2] = Glucose tolerance assessment in normal C57BL/6 mice (Example 4); format: in vivo; settings: for Blood glucose level (mM) 15 min / Blood glucose level (mM) 30 min / Blood glucose level (mM) 60 min / Blood glucose level (mM) 90 min / Blood glucose level (mM) 0 min / AUC0-90 min: 3 nmol/kg s.c. single dose, 24 h after administration; for Blood glucose level (mM) 15 min: 15 min after 2 g/kg glucose i.p.; for Blood glucose level (mM) 30 min: 30 min after 2 g/kg glucose i.p.; for Blood glucose level (mM) 60 min: 60 min after 2 g/kg glucose i.p.; for Blood glucose level (mM) 90 min: 90 min after 2 g/kg glucose i.p.; for Blood glucose level (mM) 0 min: basal before 2 g/kg glucose i.p.; for AUC0-90 min: blood glucose AUC, 2 g/kg glucose i.p.
Description: (§2) Twelve hours after the single administration, the animals were fasted for 12 hours and had free access to water. Blood was collected from the tail vein to determine the basal blood glucose level of each group of animals, and then 2 g/kg glucose solution was injected intraperitoneally. Blood glucose was tested at 15, 30, 60, and 90 min after glucose administration. The blood glucose concentration-time curve was drawn according to the blood glucose values measured at different time points, and the AUC0~90min of each dose group was calculated as shown in Table 4 and Figure 1. Table 4: Effects of single administration of HEC-PT74, HEC-PT75, HEC-PT77, HEC-PT78, HEC-PT80, and HEC-PT82 on glucose tolerance in normal C57 mice 24 h after administration

GLP-1R = target: T3, GLP-1R (Homo sapiens, UniProt P43220); assay: In vitro cell activity, cAMP production in HEK293 cells expressing GLP-1R; format: cell-based
T3 construct: expressed in transfected cells; host or cells: HEK293 (HEK293-GLP-1R)
In short: as §1

[3] = Glucose tolerance assessment in normal C57BL/6 mice (Example 5); format: in vivo; settings: 3 nmol/kg s.c. single dose, 24 h after administration
Description: as §2, with “Table 5” for “Table 4”, “Figure 2.” for “Figure 1.”, “Table 5:” for “Table 4:”, “of HEC-PT86, HEC-PT96, HEC-PT112, HEC-PT113, HEC-PT114,” for “of HEC-PT74, HEC-PT75, HEC-PT77, HEC-PT78, HEC-PT80,”, “and HEC-PT119” for “and HEC-PT82”

T3 sequence (P43220 24-463, species assumed): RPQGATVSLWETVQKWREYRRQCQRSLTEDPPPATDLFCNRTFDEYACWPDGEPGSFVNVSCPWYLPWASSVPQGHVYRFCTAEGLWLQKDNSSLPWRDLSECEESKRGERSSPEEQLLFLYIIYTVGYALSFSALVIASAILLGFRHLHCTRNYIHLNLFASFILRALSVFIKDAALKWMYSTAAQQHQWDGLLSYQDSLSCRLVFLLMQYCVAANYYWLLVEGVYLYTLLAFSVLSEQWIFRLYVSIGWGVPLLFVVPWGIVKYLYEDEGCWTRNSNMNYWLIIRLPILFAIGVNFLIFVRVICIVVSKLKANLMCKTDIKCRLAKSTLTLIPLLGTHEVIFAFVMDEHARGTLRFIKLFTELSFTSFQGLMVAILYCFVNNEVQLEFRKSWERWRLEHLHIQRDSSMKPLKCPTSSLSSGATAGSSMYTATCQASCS
T2 sequence (P47871 26-477, species assumed): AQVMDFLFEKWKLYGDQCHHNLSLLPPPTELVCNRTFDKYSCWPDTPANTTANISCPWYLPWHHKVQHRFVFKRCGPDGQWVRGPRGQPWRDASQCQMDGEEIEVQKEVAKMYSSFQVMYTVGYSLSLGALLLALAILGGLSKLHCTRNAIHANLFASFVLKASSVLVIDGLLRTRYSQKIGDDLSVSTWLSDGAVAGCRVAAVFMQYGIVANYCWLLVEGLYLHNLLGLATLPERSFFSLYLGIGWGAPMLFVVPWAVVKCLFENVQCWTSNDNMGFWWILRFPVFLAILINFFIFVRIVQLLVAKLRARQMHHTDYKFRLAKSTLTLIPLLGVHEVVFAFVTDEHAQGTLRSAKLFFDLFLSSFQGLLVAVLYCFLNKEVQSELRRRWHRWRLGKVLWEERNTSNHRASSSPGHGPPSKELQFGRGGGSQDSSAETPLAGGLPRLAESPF

Compound: CC[C@H](C)[C@H](NC(=O)[C@H](Cc1ccccc1)NC(=O)[C@H](CCC(=O)O)NC(=O)[C@H](CCCNC(=N)N)NC(=O)[C@H](CCC(N)=O)NC(=O)[C@H](C)NC(=O)[C@H](CCCCNC(=O)COCCOCCNC(=O)CC[C@H](NC(=O)CCCCCCCCCCCCCCCCC(=O)O)C(=O)O)NC(=O)[C@H](CCC(=O)O)NC(=O)[C@H](CC(=O)O)NC(=O)[C@H](CC(C)C)NC(=O)[C@H](CC(C)C)NC(=O)[C@@H](NC(=O)[C@H](CO)NC(=O)[C@H](Cc1ccc(O)cc1)NC(=O)[C@H](CC(=O)O)NC(=O)[C@H](CO)NC(=O)[C@@H](NC(=O)[C@](C)(Cc1ccccc1F)NC(=O)[C@@H](NC(=O)CNC(=O)[C@H](Cc1c[nH]cn1)NC(=O)C(C)(C)NC(=O)[C@@H](N)Cc1ccc(O)cc1)[C@@H](C)O)[C@@H](C)O)[C@@H](C)CC)C(=O)N[C@@H](CCC(=O)O)C(=O)N[C@@H](Cc1c[nH]c2ccccc12)C(=O)N[C@@H](CC(C)C)C(=O)N[C@@H](CC(C)C)C(=O)N[C@@H](C)C(=O)NCC(=O)NCC(=O)N1CCC[C@H]1C(=O)N[C@@H](CO)C(=O)N[C@@H](CO)C(=O)NCC(=O)N[C@@H](C)C(=O)N1CCC[C@H]1C(=O)N1CCC[C@H]1C(=O)N1CCC[C@H]1C(=O)N[C@@H](CO)C(=O)O [HEC-PT74]
- EC50 (GIPR): 4.3 pM
- EC50 (GCGR): 319 pM
- blood glucose after administration ([1]; db/db mice, 10 nmol/kg): significantly reduce blood glucose
- Random blood glucose (mM) D0 ([1]; db/db mice, 10 nmol/kg s.c. once every three days, D0 (before first dose)): 25.5 ± 4.7 mM
- Random blood glucose (mM) D3 ([1]; db/db mice, 10 nmol/kg s.c. once every three days, D3): 13.5 ± 4.4 mM
- Random blood glucose (mM) D4 ([1]; db/db mice, 10 nmol/kg s.c. once every three days, D4): 20.0 ± 2.9 mM
- Random blood glucose (mM) D5 ([1]; db/db mice, 10 nmol/kg s.c. once every three days, D5): 22.1 ± 3.9 mM
- Random blood glucose (mM) D6 ([1]; db/db mice, 10 nmol/kg s.c. once every three days, D6): 21.1 ± 3.0 mM
- Random blood glucose (mM) D7 ([1]; db/db mice, 10 nmol/kg s.c. once every three days, D7): 22.7 ± 2.9 mM
- Random blood glucose (mM) D10 ([1]; db/db mice, 10 nmol/kg s.c. once every three days, D10): 12.1 ± 2.1 mM
- Random blood glucose (mM) D13 ([1]; db/db mice, 10 nmol/kg s.c. once every three days, D13): 12.5 ± 2.7 mM
- Random blood glucose (mM) D16 ([1]; db/db mice, 10 nmol/kg s.c. once every three days, D16): 12.1 ± 2.9 mM
- Random blood glucose (mM) D19 ([1]; db/db mice, 10 nmol/kg s.c. once every three days, D19): 16.0 ± 2.3 mM
- Random blood glucose (mM) D22 ([1]; db/db mice, 10 nmol/kg s.c. once every three days, D22): 13.9 ± 3.2 mM
- Random blood glucose (mM) D25 ([1]; db/db mice, 10 nmol/kg s.c. once every three days, D25): 16.3±4.2^a mM
- Random blood glucose (mM) 6 h ([1]; db/db mice, 10 nmol/kg s.c., 6 h): 16.7 ± 5.1 mM
- Random blood glucose (mM) 24 h ([1]; db/db mice, 10 nmol/kg s.c., 24 h): 7.3 ± 1.6 mM
- Random blood glucose (mM) 48 h ([1]; db/db mice, 10 nmol/kg s.c., 48 h): 9.2 ± 2.9 mM
- time at which blood glucose levels reached the lowest level ([1]; db/db mice, 10 nmol/kg, after administration): about 24 hours
- blood glucose lowering after long-term administration compared with LY3298176 ([1]; db/db mice, long-term repeated administration): not inferior to the positive control LY3298176
- blood glucose reducing effect after administration compared with LY3298176 ([1]; db/db mice, same dose 10 nmol/kg): slightly better than the positive control LY3298176
- blood glucose level after long-term administration ([1]; type II diabetes model db/db mice): significantly improve the blood glucose level
- Blood glucose level (mM) 15 min [2]: 14.0 ± 4.3 mM
- Blood glucose level (mM) 30 min [2]: 10.0 ± 3.1 mM
- Blood glucose level (mM) 60 min [2]: 8.4 ± 2.5 mM
- Blood glucose level (mM) 90 min [2]: 7.1 ± 2.3 mM
- Blood glucose level (mM) 0 min [2]: 4.6 ± 1.0 mM
- AUC0-90 min [2]: 827.3±234.6^a
- EC50 (GLP-1R): 104 pM

Compound: CC[C@H](C)[C@H](NC(=O)[C@H](Cc1ccccc1)NC(=O)[C@H](C)NC(=O)[C@H](CCCNC(=N)N)NC(=O)[C@H](CCC(N)=O)NC(=O)[C@H](C)NC(=O)[C@H](CCCCNC(=O)COCCOCCNC(=O)CC[C@H](NC(=O)CCCCCCCCCCCCCCCCC(=O)O)C(=O)O)NC(=O)[C@H](CCC(=O)O)NC(=O)[C@H](CC(=O)O)NC(=O)[C@H](CC(C)C)NC(=O)[C@H](CC(C)C)NC(=O)[C@@H](NC(=O)[C@H](CO)NC(=O)[C@H](Cc1ccc(O)cc1)NC(=O)[C@H](CC(=O)O)NC(=O)[C@H](CO)NC(=O)[C@@H](NC(=O)[C@](C)(Cc1ccccc1F)NC(=O)[C@@H](NC(=O)CNC(=O)[C@H](Cc1c[nH]cn1)NC(=O)C(C)(C)NC(=O)[C@@H](N)Cc1ccc(O)cc1)[C@@H](C)O)[C@@H](C)O)[C@@H](C)CC)C(=O)N[C@@H](CCC(=O)O)C(=O)N[C@@H](Cc1ccc(O)cc1)C(=O)N[C@@H](CC(C)C)C(=O)N[C@@H](CC(C)C)C(=O)N[C@@H](C)C(=O)NCC(=O)NCC(=O)N1CCC[C@H]1C(=O)N[C@@H](CO)C(=O)N[C@@H](CO)C(=O)NCC(=O)N[C@@H](C)C(=O)N1CCC[C@H]1C(=O)N1CCC[C@H]1C(=O)N1CCC[C@H]1C(=O)N[C@@H](CO)C(=O)O [HEC-PT75]
- EC50 (GIPR): 37.7 pM
- EC50 (GCGR): 67.2 pM
- Blood glucose level (mM) 15 min [2]: 11.1 ± 3.1 mM
- Blood glucose level (mM) 30 min [2]: 8.9 ± 3.1 mM
- Blood glucose level (mM) 60 min [2]: 7.4 ± 2.0 mM
- Blood glucose level (mM) 90 min [2]: 5.6 ± 0.7 mM
- Blood glucose level (mM) 0 min [2]: 4.0 ± 0.4 mM
- improvement of glucose tolerance compared with LY3298176 ([2]; 24 hours after a single administration, 3 nmol/kg): more effective in improving glucose tolerance than the positive control LY3298176
- AUC0-90 min [2]: 682.0±166.7^a
- EC50 (GLP-1R): 108 pM

Compound: CC[C@H](C)[C@H](NC(=O)[C@H](CCCCN)NC(=O)[C@H](CC(=O)O)NC(=O)[C@H](CCCCNC(=O)COCCOCCNC(=O)CC[C@H](NC(=O)CCCCCCCCCCCCCCCCC(=O)O)C(=O)O)NC(=O)[C@H](CC(C)C)NC(=O)[C@@H](NC(=O)[C@H](CO)NC(=O)[C@H](Cc1ccc(O)cc1)NC(=O)[C@H](CC(=O)O)NC(=O)[C@H](CO)NC(=O)[C@@H](NC(=O)[C@](C)(Cc1ccccc1F)NC(=O)[C@@H](NC(=O)CNC(=O)[C@H](CCC(N)=O)NC(=O)C(C)(C)NC(=O)[C@@H](N)Cc1ccc(O)cc1)[C@@H](C)O)[C@@H](C)O)[C@@H](C)CC)C(=O)N[C@@H](C)C(=O)N[C@@H](CCC(N)=O)C(=O)NC(C)(C)C(=O)N[C@@H](C)C(=O)N[C@@H](Cc1ccccc1)C(=O)N[C@H](C(=O)N[C@@H](CCC(=O)O)C(=O)N[C@@H](Cc1ccc(O)cc1)C(=O)N[C@@H](CC(C)C)C(=O)N[C@@H](CC(C)C)C(=O)N[C@@H](CCC(=O)O)C(=O)NCC(=O)NCC(=O)N1CCC[C@H]1C(=O)N[C@@H](CO)C(=O)N[C@@H](CO)C(=O)NCC(=O)N[C@@H](C)C(=O)N1CCC[C@H]1C(=O)N1CCC[C@H]1C(=O)N1CCC[C@H]1C(=O)N[C@@H](CO)C(N)=O)[C@@H](C)CC [HEC-PT114]
- EC50 (GIPR): 56.7 pM
- Blood glucose level (mM) 15 min ([3]; 15 min after 2 g/kg glucose i.p.): 13.5 ± 1.0 mM
- Blood glucose level (mM) 30 min ([3]; 30 min after 2 g/kg glucose i.p.): 9.8 ± 0.8 mM
- Blood glucose level (mM) 60 min ([3]; 60 min after 2 g/kg glucose i.p.): 7.9 ± 0.8 mM
- Blood glucose level (mM) 90 min ([3]; 90 min after 2 g/kg glucose i.p.): 6.3 ± 0.8 mM
- Blood glucose level (mM) 0 min ([3]; basal before 2 g/kg glucose i.p.): 4.9 ± 1.0 mM
- AUC0-90 min ([3]; blood glucose AUC, 2 g/kg glucose i.p.): 791.0±55.3^a
- EC50 (GCGR): 138 pM
- EC50 (GLP-1R): 120 pM
